Measured values from article PMC12207590, “Substrate Specificity of the Organic Cation Transporters MATE1 and MATE2K and Functional Overlap with OCT1 and OCT2” (Journal of Medicinal Chemistry, 2025).
Where two headings read alike, the source gives them in different places.

Key:
hCMEC [1] = experiment: TS DPH hCMEC (Table S2); type: cell-based, human; parameters: scale not given here
hCMEC [2] = experiment: TS MDAI hCMEC (Table S2); type: cell-based, human; parameters: scale not given here
MATE1 [3] = target: T1, MATE1 (Homo sapiens, UniProt Q96FL8); experiment: Concentration-dependent uptake (Michaelis-Menten) via MATE1 in HEK293 cells; details: for Km: read-out: MATE1 KM
T1 sequence (Q96FL8 1-570): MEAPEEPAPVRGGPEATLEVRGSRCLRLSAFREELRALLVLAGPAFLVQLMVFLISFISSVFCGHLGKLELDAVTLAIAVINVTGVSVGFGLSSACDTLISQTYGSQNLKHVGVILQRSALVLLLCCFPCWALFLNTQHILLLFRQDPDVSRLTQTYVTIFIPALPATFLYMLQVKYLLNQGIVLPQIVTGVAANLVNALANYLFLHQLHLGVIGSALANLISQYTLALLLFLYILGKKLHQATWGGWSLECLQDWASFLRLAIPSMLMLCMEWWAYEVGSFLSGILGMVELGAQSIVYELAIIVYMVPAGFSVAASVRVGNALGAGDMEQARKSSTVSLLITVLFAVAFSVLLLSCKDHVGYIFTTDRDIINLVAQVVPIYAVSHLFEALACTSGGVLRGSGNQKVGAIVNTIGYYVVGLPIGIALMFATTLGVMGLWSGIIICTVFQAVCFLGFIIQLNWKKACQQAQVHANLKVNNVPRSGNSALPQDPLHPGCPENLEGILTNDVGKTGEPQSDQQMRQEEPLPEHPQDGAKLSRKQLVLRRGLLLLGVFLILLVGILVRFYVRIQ

MATE2K [4] = target: T2, MATE2K (Homo sapiens, UniProt Q86VL8); experiment: Concentration-dependent uptake (Michaelis-Menten) via MATE2K in HEK293 cells; details: HEK293, 1 min, net uptake; for Km: read-out: MATE2K KM
T2 sequence (Q86VL8 1-566 isoform Q86VL8-3): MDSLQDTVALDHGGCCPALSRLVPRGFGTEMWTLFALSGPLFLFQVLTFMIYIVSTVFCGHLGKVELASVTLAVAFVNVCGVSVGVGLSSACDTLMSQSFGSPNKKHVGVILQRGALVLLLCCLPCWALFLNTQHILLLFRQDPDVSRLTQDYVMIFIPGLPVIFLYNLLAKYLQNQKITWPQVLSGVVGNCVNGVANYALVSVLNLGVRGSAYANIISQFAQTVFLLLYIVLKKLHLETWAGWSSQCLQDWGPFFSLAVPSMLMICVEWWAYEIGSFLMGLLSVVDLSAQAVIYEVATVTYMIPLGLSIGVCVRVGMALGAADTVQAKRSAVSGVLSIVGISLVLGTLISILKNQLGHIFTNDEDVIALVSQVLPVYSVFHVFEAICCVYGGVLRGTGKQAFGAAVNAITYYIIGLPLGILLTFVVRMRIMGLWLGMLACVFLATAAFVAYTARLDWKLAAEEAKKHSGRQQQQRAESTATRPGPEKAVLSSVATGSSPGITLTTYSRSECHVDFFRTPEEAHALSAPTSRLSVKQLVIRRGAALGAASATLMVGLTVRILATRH

[5] = tested on: MATE1, MATE2K, OCT1, OCT2; experiment: Substrate specificity and overlap among the four transporters (ratio cutoff 2); type: cell-based, human
MATE1 [6] = target: T1, MATE1; experiment: Uptake ratio in MATE1-overexpressing HEK293 cells vs empty vector (2.5 μM, 1 min, HPLC-MS/MS); type: cell-based; details: for MATE1 ratio in this study: Table S1
MATE2K [7] = target: T2, MATE2K; experiment: Uptake ratio in MATE2K-overexpressing HEK293 cells vs empty vector (2.5 μM, 1 min, HPLC-MS/MS); type: cell-based; details: for MATE2K ratio in this study: Table S1
[8] = fold uptake over empty vector, 2.5 μM, 1 min
[9] = uptake ratio MATE1-overexpressing vs empty-vector HEK293 cells, 2.5 μM, 1 min, mean
[10] = uptake ratio MATE2K-overexpressing vs empty-vector HEK293 cells, 2.5 μM, 1 min, mean

Molecule	MATE1 Vmax (MATE1 [3]; HEK293, 1 min, net uptake)	MATE2K Vmax (MATE2K [4])	Substrate specificity among MATE1, MATE2K, OCT1, OCT2 ([5]; transport ratio cutoff of 2)	MATE1 ratio (MATE1 [6]; [8])	MATE2K ratio (MATE2K [7]; [8])	Km (MATE1 [3]; HEK293, 1 min, net uptake) [µM]	Km (MATE2K [4]) [µM]	also measured
Cc1c(N)c(=O)n(-c2ccccc2)n1C [4-Aminoantipyrine]	linear	linear						TS DPH hCMEC (hCMEC [1]; Table S2): 1.09; TS MDAI hCMEC (hCMEC [2]; Table S2): 1.01
C[C@H](CS)C(=O)N1CCC[C@H]1C(=O)O [Captopril]								Substrate specificity among MATE1, MATE2K, OCT1, OCT2 [5]: no substrates of the four transporters
C[C@H](N)[C@@H](O)c1ccccc1 [Cathine]			OCT2 only					TS DPH hCMEC (hCMEC [1]): 0.35
CC1(C)N=C(N)N=C(N)N1c1ccc(Cl)cc1 [Cycloguanil]			All four transporters	21.02	10.75			MATE1 ratio in this study (MATE1 [6]; 2.5 μM, 1 min): 21.02; MATE2K ratio in this study (MATE2K [7]; 2.5 μM, 1 min): 10.75
CC(CCc1ccc(O)cc1)NCCc1ccc(O)c(O)c1 (centres unmarked) [Dobutamine]	2586 pmol × mg protein^–1 × min^–1	493 pmol × mg protein^–1 × min^–1		17.41	2.77	88.6	86.4	TS DPH hCMEC (hCMEC [1]; Table S2): 0.67; TS MDAI hCMEC (hCMEC [2]; Table S2): 0.99
Nc1ccncc1 [Fampridine (4-aminopyridine), 4-aminopyridine]			OCT2 only					
CCCCCCN [Hexylamine]			OCT1 only					MATE1 ratio (MATE1 [6]): 1.21; MATE2K ratio (MATE2K [7]): 1.08
CC(=O)OC(C)C[N+](C)(C)C (centres unmarked) [Methacholine]	17,843 pmol × mg protein^–1 × min^–1	1240 pmol × mg protein^–1 × min^–1		21.58	2.57	1990	1400	
C[N@+]1(CC2CC2)CC[C@]23c4c5ccc(O)c4O[C@H]2C(=O)CC[C@@]3(O)[C@H]1C5 [Methylnaltrexone]	55.8 pmol × mg protein^–1 × min^–1	41.6 pmol × mg protein^–1 × min^–1	All four transporters			17.9	86.8	TS DPH hCMEC (hCMEC [1]; Table S2): 1.11; TS MDAI hCMEC (hCMEC [2]; Table S2): 0.84
COC(=O)C(c1ccccc1)C1CCCCN1 (centres unmarked) [Methylphenidate]			OCT2 only					TS DPH hCMEC (hCMEC [1]): 0.33; TS MDAI hCMEC (hCMEC [2]): 0.24
COc1ccc(OC)c(C(O)CNC(=O)CN)c1 (centres unmarked) [Midodrine]			MATE1 only	4.53	1.43			TS DPH hCMEC (hCMEC [1]; Table S2): 1.05; TS MDAI hCMEC (hCMEC [2]; Table S2): 1.02
CC[N+](CC)(CC)CC(=O)Nc1c(C)cccc1C [N-Ethyl-lidocaine]			All four transporters	36.39	14.68			
N=C(N)c1ccc2cc(OC(=O)c3ccc(N=C(N)N)cc3)ccc2c1 [Nafamostat]			MATE1 only					MATE1 ratio (MATE1 [6]): 5.45; MATE2K ratio (MATE2K [7]): 1.64
COc1cc(C(O)CN)ccc1O (centres unmarked) [Normetanephrine]			OCT1 only	1.80	0.82			
COc1ccc2c3c1O[C@H]1C(=O)CC[C@@]4(O)[C@@H](C2)NCC[C@]314 [Noroxycodone]			OCT1 only					MATE1 ratio (MATE1 [6]): 1.39; MATE2K ratio (MATE2K [7]): 1.13
CC(C)NCC(O)c1cc(O)cc(O)c1 (centres unmarked) [Orciprenaline]			All four transporters	34.88	23.10			
CCOC(=O)C1(c2ccccc2)CCN(C)CC1 [Pethidine]			MATE2K only					
[H]/N=C(/N)N/C(=N/[H])NCCc1ccccc1 [Phenformin]	8451 pmol × mg protein^–1 × min^–1	1361 pmol × mg protein^–1 × min^–1		19.54	3.01	101	73.1	
CNC[C@H](O)c1cccc(O)c1 [Phenylephrine]	11,611 pmol × mg protein^–1 × min^–1	776 pmol × mg protein^–1 × min^–1		13.78	1.75	474	434	TS DPH hCMEC (hCMEC [1]; Table S2): 0.76; TS MDAI hCMEC (hCMEC [2]; Table S2): 1.03
Cc1ncc(CO)c(CN)c1O [Pyridoxamine]	5442 pmol × mg protein^–1 × min^–1	989.5 pmol × mg protein^–1 × min^–1	MATE1 only	2.68	1.36	1690	1550	MATE1 (MATE1 [6]; [9]): 2.68; MATE2 (MATE2K [7]; [10]): 1.36
Cc1ncc(CO)c(CO)c1O [Pyridoxin]	10,014 pmol × mg protein^–1 × min^–1	593 pmol × mg protein^–1 × min^–1		2.33	1.18	4230	495	MATE1 (MATE1 [6]; [9]): 2.33; MATE2 (MATE2K [7]; [10]): 1.18
COCCn1c2c([n+](Cc3cnccn3)c1C)C(=O)c1ccccc1C2=O [Sepantronium]		78.5 pmol × mg protein^–1 × min^–1				80.9	8.54	MATE1 (MATE1 [6]): 6.15; MATE1 ratio (MATE1 [6]): 6.15; MATE2 (MATE2K [7]): 9.45; MATE2K ratio (MATE2K [7]): 9.45; TS DPH hCMEC (hCMEC [1]): 1.01; TS MDAI hCMEC (hCMEC [2]): 0.99; MATE1 Vmax (MATE1 [3]): 304 pmol × mg protein^–1 × min^–1
Cc1ncc(C[n+]2csc(CCO)c2C)c(N)n1 [Thiamine]	599 pmol × mg protein^–1 × min^–1	109.2 pmol × mg protein^–1 × min^–1	All four transporters			17.2	17.3	MATE1 ratio in this study (MATE1 [6]; 2.5 μM, 1 min): 33.42; MATE1 (MATE1 [6]; [9]): 33.42; MATE2K ratio in this study (MATE2K [7]; 2.5 μM, 1 min): 10.63; MATE2 (MATE2K [7]; [10]): 10.63
CC[C@@]1(O)C(=O)OCc2c1cc1n(c2=O)Cc2cc3c(CN(C)C)c(O)ccc3nc2-1 [Topotecan]			MATE1 only					MATE1 ratio in this study (MATE1 [6]; 2.5 μM, 1 min): 2.53; MATE1 (MATE1 [6]; [9]): 2.53; MATE2K ratio in this study (MATE2K [7]; 2.5 μM, 1 min): 1.61; MATE2 (MATE2K [7]; [10]): 1.61
NCCc1ccc(O)cc1 [Tyramine]	5948 pmol × mg protein^–1 × min^–1	2868 pmol × mg protein^–1 × min^–1				136	1060	MATE1 ratio in this study (MATE1 [6]; 2.5 μM, 1 min): 10.06; MATE1 (MATE1 [6]; [9]): 10.06; MATE2K ratio in this study (MATE2K [7]; 2.5 μM, 1 min): 1.39; MATE2 (MATE2K [7]; [10]): 1.39
COc1cc(Cc2cnc(N)nc2N)cc(OC)c1OC [trimethoprim]			OCT1 only					MATE1 (MATE1 [6]; [9]): 1.52; MATE2 (MATE2K [7]; [10]): 1.23
thyrotropin-releasing hormone			no substrates of the four transporters					
